Measured values published in US20160184274A1, “Methods for inhibiting mesenchymal phenotype after epithelial-to-mesenchymal transition” (Fibrostatin, S.L., priority 2014, published 2016).

Experiments:
[1] = tested on: A549 tumors displaying mesenchymal phenotype; assay: A549 xenograft, tumors with mesenchymal phenotype; assay type: in vivo; conditions: T12 20 mg/kg/day in drinking water; athymic mice; FIG. 10A
Text: FIG. 10. […] Control, n=43; T12, n=18.

[2] = molecular target: T1, trimeric intracellular GPBP (Homo sapiens, UniProt Q9Y5P4); assay: In vitro phosphorylation assay with trimeric intracellular GPBP; assay type: biochemical; conditions: T12 50 μM; autophosphorylation, γ[32P]ATP; FIG. 2
T1 construct: made in house; host or cells: Sf9 insect cells (baculovirus), purified from cell lysates
T1 sequence (Q9Y5P4 1-624): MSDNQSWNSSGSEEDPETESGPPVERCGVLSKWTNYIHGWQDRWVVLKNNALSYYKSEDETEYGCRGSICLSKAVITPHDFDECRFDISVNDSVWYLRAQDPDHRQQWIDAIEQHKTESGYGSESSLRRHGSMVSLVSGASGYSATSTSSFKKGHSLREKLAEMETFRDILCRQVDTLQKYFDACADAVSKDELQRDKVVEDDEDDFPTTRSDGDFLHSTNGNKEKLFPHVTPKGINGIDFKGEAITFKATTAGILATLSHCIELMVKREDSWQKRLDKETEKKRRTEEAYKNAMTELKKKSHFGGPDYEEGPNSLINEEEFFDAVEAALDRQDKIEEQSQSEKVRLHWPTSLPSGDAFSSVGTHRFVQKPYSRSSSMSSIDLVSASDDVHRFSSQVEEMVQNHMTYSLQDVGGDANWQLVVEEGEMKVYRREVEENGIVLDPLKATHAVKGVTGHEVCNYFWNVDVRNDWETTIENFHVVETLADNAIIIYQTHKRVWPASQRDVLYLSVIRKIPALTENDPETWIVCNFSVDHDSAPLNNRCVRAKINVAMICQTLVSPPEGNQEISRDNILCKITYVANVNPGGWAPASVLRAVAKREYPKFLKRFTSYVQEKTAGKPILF
Experimental: FIG. 2. […] Multimeric extracellular and trimeric intracellular GPBP were purified by affinity chromatography and subsequent gel filtration chromatography, and used for in vitro phosphorylation assays in absence (−) or presence (+) of T12 (50 μM). Reactions were subjected to SDS-PAGE, Western blot onto PVDF membrane and autoradiography, and further protein detected with anti-FLAG primary antibodies. Autoradiography and anti-FLAG® bands were quantified with WCIF IMAGEJ® software, and the normalized kinase activity estimated. Shown are normalized kinase activities. […] Samples were analyzed in triplicate and the data represents the Mean (±SEM) of three independent assays.
FLAG®-tagged GPBP was expressed using Bac-to-Bac® Baculovirus Expression System. […] Finally, purified protein was quantified with Bio-Rad Protein Assay and stored at −20° C. […]
Typically, about 270 ng of purified FLAG®-GPBP protein, either extracellular multimer or intracellular trimer, were incubated in presence or absence of T12 […] in a kinase assay buffer containing 25 mM disodium β-glycerophosphate, 8 mM MgCl2, 0.5 mM EDTA, 0.5 mM EGTA, 1 mM DTT, 5 mM MnCl2 during 10 min at 37° C. […] Then reactions were stopped with SDS-PAGE loading buffer and heat (95° C., 3 min) and analyzed by SDS-PAGE, electro-transference to PVDF membrane (Merck Millipore) and autoradiography. […]

## COc1ccc(-c2ccc(-c3cccc(C)c3)c(C)c2)c(CCC(=O)O)c1 [T12, 3-[4″-methoxy-3,2′-dimethyl-(1,1′;4′,1″)terphenyl-2″-yl] propionic acid]
[1]
  tumor growth (relative tumor volume): very effective slowing the growth
[2]
  normalized kinase activity of GPBP: not intracellular GPBP trimers
